According to paper PMC12298351, “Novel 3,19-(N-Phenyl-3-(4-fluorophenyl)-pyrazole) Acetal of Andrographolide Promotes Cell Cycle Arrest and Apoptosis in MDA-MB-231 Breast Cancer Cells” (Pharmaceuticals, 2025):

Experiments:
M14 = assay type: cell-based; conditions: M14, Melanoma
MDA-MB-468 = conditions: MDA-MB-468, Breast
U251 = conditions: U251, CNS
A498 = conditions: A498, Renal
KM12 = conditions: KM12, Colon
OVCAR-8 = conditions: OVCAR-8, Ovarian
SK-MEL-28 = conditions: SK-MEL-28, Melanoma
CAKI-1 = conditions: CAKI-1, Renal
SK-MEL-2 = conditions: SK-MEL-2, Melanoma
HT29 = conditions: HT29, Colon
RXF 393 = conditions: RXF 393, Renal
MALME-3M = conditions: Melanoma
SF-539 = conditions: SF-539, CNS
SW-620 = conditions: SW-620, Colon
OVCAR-3 = conditions: OVCAR-3, Ovarian
[1] = DPPH radical scavenging assay; conditions: 25 µM test compound, 0.1 mM DPPH, acetonitrile, 30 min
In short: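 Compounds at 25 µM in acetonitrile mixed 1:2 with 0.1 mM DPPH in acetonitrile, kept 30 min in the dark at room temperature. Absorbance read at 517 nm; % scavenging = (Ac − As)/Ac × 100, Ac being DPPH blank. Ascorbic acid positive control.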

MCF7 = conditions: MCF7, Breast
[2] = read-out: 50% lethal concentration (LC50)
[3] = read-out: 50% lethal concentration (LC50), Non-Small Cell Lung

## C=C1CCC2C3(C)COC(c4cn(-c5ccccc5)nc4-c4ccc(F)cc4)OC3CCC2(C)C1CC=C1C(=O)OCC1O (centres unmarked) [1f, 3,19-(N-Phenyl-3-(4-fluorophenyl)-pyrazole) Acetal of Andrographolide]
M14
  GI50: 1.5 µM
  Total growth inhibition (TGI): 3.23 µM
MDA-MB-468
  GI50: 1.53 µM
  Total growth inhibition (TGI): 2.96 µM
MDA-MB-468; [2]
  CC50: 5.71 µM
MDA-MB-231; MDA-MB-231, Breast
  GI50: 1.68 µM
MDA-MB-231; MDA-MB-231/ATCC, Breast
  Total growth inhibition (TGI): 3.28 µM
MDA-MB-231; read-out: 50% lethal concentration (LC50), MDA-MB-231/ATCC, Breast
  CC50: 6.41 µM
HOP-62; HOP-62, Non-Small Cell Lung
  Total growth inhibition (TGI): 3.36 µM
HOP-62; HOP-62, Non-Small-Cell Lung
  GI50: 1.62 µM
HOP-62; read-out: 50% lethal concentration (LC50), HOP-62, Non-Small Cell Lung
  CC50: 6.95 µM
EKVX; Non-Small Cell Lung
  Total growth inhibition (TGI): 4.72 µM
EKVX; Non-Small-Cell Lung
  GI50: 2.06 µM
EKVX; [3]
  CC50: > 100 µM
A549/ATCC; Non-Small Cell Lung
  Total growth inhibition (TGI): 5.92 µM
A549/ATCC; Non-Small-Cell Lung
  GI50: 2.14 µM
A549/ATCC; [3]
  CC50: 51.5 µM
U251
  GI50: 2.36 µM
  Total growth inhibition (TGI): 5.63 µM
A498
  GI50: 3.31 µM
  Total growth inhibition (TGI): 11.5 µM
A498; [2]
  CC50: 38.3 µM
KM12
  GI50: 1.84 µM
  Total growth inhibition (TGI): 3.59 µM
OVCAR-8
  GI50: 1.48 µM
  Total growth inhibition (TGI): 2.95 µM
OVCAR-8; [2]
  CC50: 5.86 µM
NCI-H226; NCI-H226, Non-Small Cell Lung
  Total growth inhibition (TGI): 2.94 µM
NCI-H226; NCI-H226, Non-Small-Cell Lung
  GI50: 1.51 µM
NCI-H226; read-out: 50% lethal concentration (LC50), NCI-H226, Non-Small Cell Lung
  CC50: 5.75 µM
SK-MEL-28
  GI50: 1.66 µM
  Total growth inhibition (TGI): 3.12 µM
SK-MEL-28; [2]
  CC50: 5.86 µM
CAKI-1
  GI50: 1.58 µM
  Total growth inhibition (TGI): 3.17 µM
CAKI-1; [2]
  CC50: 6.34 µM
SK-MEL-2
  GI50: 1.69 µM
  Total growth inhibition (TGI): 3.1 µM
HT29
  GI50: 2.38 µM
  Total growth inhibition (TGI): 7.63 µM
HT29; [2]
  CC50: 93.9 µM
SR; Leukemia
  GI50: 1.7 µM
  Total growth inhibition (TGI): 7.33 µM
SR; read-out: 50% lethal concentration (LC50), Leukemia
  CC50: > 100 µM
RXF 393
  GI50: 1.6 µM
  Total growth inhibition (TGI): 3.04 µM
RXF 393; [2]
  CC50: 5.78 µM
MALME-3M
  GI50: 1.58 µM
  Total growth inhibition (TGI): 3.02 µM
SF-539
  GI50: 1.77 µM
  Total growth inhibition (TGI): 3.16 µM
SF-539; [2]
  CC50: 5.65 µM
SW-620
  GI50: 4.49 µM
  Total growth inhibition (TGI): > 100 µM
SW-620; [2]
  CC50: > 100 µM
OVCAR-3
  GI50: 2.02 µM
  Total growth inhibition (TGI): 3.71 µM
OVCAR-3; [2]
  CC50: 6.79 µM
NCI-H460; NCI-H460, Non-Small Cell Lung
  Total growth inhibition (TGI): 3.33 µM
NCI-H460; NCI-H460, Non-Small-Cell Lung
  GI50: 1.69 µM
NCI-H460; read-out: 50% lethal concentration (LC50), NCI-H460, Non-Small Cell Lung
  CC50: 6.57 µM
HS 578T; Breast
  GI50: 1.51 µM
  Total growth inhibition (TGI): 2.94 µM
HS 578T; read-out: 50% lethal concentration (LC50), Breast
  CC50: 5.72 µM
NCI/ADR-RES; Ovarian
  GI50: 1.54 µM
  Total growth inhibition (TGI): 3.57 µM
NCI/ADR-RES; read-out: 50% lethal concentration (LC50), Ovarian
  CC50: 8.29 µM
[1]
  % DPPH radical scavenging activity: 58.15%
SN12C; Renal
  GI50: 1.55 µM
  Total growth inhibition (TGI): 3.27 µM
SN12C; read-out: 50% lethal concentration (LC50), Renal
  CC50: 6.93 µM
MCF7
  GI50: 1.43 µM
  Total growth inhibition (TGI): 4.13 µM
MCF7; [2]
  CC50: 63.1 µM
LOX IMVI; Melanoma
  GI50: 1.32 µM
  Total growth inhibition (TGI): 2.59 µM
LOX IMVI; read-out: 50% lethal concentration (LC50), Melanoma
  CC50: 5.09 µM
